From US4195023A, “2-(2-Furoyl)1,2-benzisothiazole-3-one, 2-(2-furoyl) saccharin, and 2-(2-thenoyl) saccharin” (Merck & Co., Inc., priority 1975, dated 1980)

Tests used:
Papain induced emphysema = settings: hamster; cited from earlier work
[1] = tested on: trypsin, chymotrypsin, plasmin, kallikrein, elastase, thrombin and a protease from Aspergillus oryzae; settings: cited from earlier work
papain = settings: cited from earlier work
papain-induced emphysema = assay: Papain-Induced Emphysema in the Hamster; type: in vivo, Male Syrian hamsters; settings: for I.S.A.3 (internal surface area), Mean ± S.E. / Lm (mean linear intercept), Mean ± S.E.: *p<0.05 versus saline i.tr. + papain aerosol group
Source text: In view of the test results, infra, the compounds of formula I, supra, are inhibitors of elastase and may be used to treat emphysema and other disorders which may be treated with elastase inhibitors, such as rheumatoid arthritis. The test procedure described below for papain-induced emphysema in the hamster is representative of recognized procedures used to experimentally papain-induce emphysema in the hamster such as that of Goldring et al. "Sequential Anatomic Changes in Lungs Exposed to Papain and other Proteolytic Enzymes" pages 389-410 in Pulmonary Emphysema and Proteolysis, edited by C. Mittman, Academic Press, Inc., New York and London, 1972.
Male Syrian hamsters in the weight range of 70-90 g were used. Food and water was allowed ad libitum except in the exposure chamber. The animals were anesthetized with pentobarbital 60 mg/kg intraperitoneally (i.p.) and saline (control) or 2-(2-furoyl)-saccharin suspended in distilled water in doses of 0.3, 1 and 3 mg was given intratracheally (i.tr.) through a slightly bent capillary tube (Kimax-51 No. 34500). […] Approximately 40 minutes later the animals were exposed to an aerosol of distilled water or 3% papain (Matheson, Coleman and Bell) for 3 hours. The aerosol was generated by two nebulizers (De Vilbiss 40) attached to the sides of a 28 liter chamber and operated at a pressure of 10 lbs. p.s.i. During this period 80-100 ml of solution was used.
Seven days after the exposure the animals were sacrificed with an overdose of pentobarbital, exanguinated by cutting the renal arteries and the lungs were excised, weighed and placed in a cylindrical 0.45 liter plethysmograph with the trachea tied to a conducting tube. The latter was connected to a respiratory pump (E & M Inst. Co., Houston, Tex.) modified to provide static inflation and deflation of the lungs. Transpulmonary pressure was recorded on the abcissa of a Honeywell 530 x-y recorder through a Grass volumetric pressure transducer (PT 5A). Changes in lung volume were recorded on the ordinate of a spirometer (10 ml capacity) connected to a Harvard linear motion transducer.
The specific static compliance (SSC) of the lungs was determined as follows: the lungs were inflated to a pressure of 20 cm H2 O and then deflated at 30 second intervals by steps of 5 cm H2 O pressure. The procedure was repeated and the second pressure volume defation curve was used for analysis. SSC was then calculated according to the formula ΔV/ΔP×W, where ΔV represents change in lung volume (ml) following change in pressure (ΔP) from 5 to 0 cm H2 O, and W is the lung wet weight (g).
Subsequently, the lungs were degassed and fixed intratracheally with formalin at a constant pressure of 15 cm H2 O for at least 48 hours and then dehydrated at the same pressure. All lungs were cleared in toluene, embedded under vacuum in parafin and each pair was blocked together. Two laterosagittal sections (6μ) of each lung were made and stained with hematoxylin and eosin and the extent of emphysematous lesions was quantitatively estimated by measuring the average intra-alveolar distance (mean linear intercept of Lm). A total of 20 random histologic fields were evaluated both vertically and horizontally and subsequently corrected for distortion and shrinkage. The internal surface area of the lungs measured at post-fixation lung volume (V) and corrected to an arbitrary total lung volume of 3 ml (ISA3) was calculated according to the formula 4V/Lm. In all studies statistical evaluation consisted of analysis of variance and significance was taken at P≤0.05.

[2] = tested on: elastase-induced emphysema (Porcine pancreatic elastase); assay: Elastase-Induced Emphysema in the Hamster; type: in vivo, Male Syrian hamsters; settings: for Lm, Mean ± S.E.: *P<0.05 versus elastase 0.1 mg i.tr. group
[3] = Group C: 0.3 mg i.tr. + papain aerosol
[4] = Group D: 1 gm i.tr. (so in the source) + papain aerosol
[5] = Group E: 3 mg i.tr. + papain aerosol
[6] = Elastase 0.1 mg + 0.03 mg i.tr.

human α1-antitrypsin (HAAT): a glycoprotein in human serum
Papain induced emphysema inhibited (Papain induced emphysema): inhibited | inhibitory spectrum [1]: wide inhibitory spectrum covering trypsin, chymotrypsin, plasmin, kallikrein, elastase, thrombin and a protease from Aspergillus oryzae | inhibition of papain (papain): not inhibited

O=C(c1ccco1)N1C(=O)c2ccccc2S1(=O)=O [2-(2-Furoyl)-saccharin, 2-(2-Furoyl)saccharin]
% Inhibition (S.S.C.) (papain-induced emphysema; 0.3 mg i.tr. + papain aerosol): 34% | S.S.C. (specific static compliance) ΔV/ΔP × W, Mean ± S.E. (papain-induced emphysema; 0.3 mg i.tr. + papain aerosol): 0.529 ± 0.041 | % Inhibition (S.S.C.) (papain-induced emphysema; 3 mg i.tr. + papain aerosol): 74% | S.S.C. (specific static compliance) ΔV/ΔP × W, Mean ± S.E. (papain-induced emphysema; 3 mg i.tr. + papain aerosol, *P<0.05 versus saline i.tr. + papain aerosol group): 0.360 ± 0.017 | Inhibition, dose relation and significance (papain-induced emphysema; 0.3, 1 and 3 mg i.tr., significance at P≤0.05): dose related but significant only for doses of 1 and 3 mg | % Inhibition (S.S.C.) (papain-induced emphysema; 1 gm i.tr. (so in the source) + papain aerosol): 48% | S.S.C. (specific static compliance) ΔV/ΔP × W, Mean ± S.E. (papain-induced emphysema; 1 gm i.tr. (so in the source) + papain aerosol, *P<0.05 versus saline i.tr. + papain aerosol group): 0.471 ± 0.039 | % inhibition (I.S.A.3) (papain-induced emphysema; [3]): 58% | % inhibition (Lm) (papain-induced emphysema; [3]): 69% | I.S.A.3 (internal surface area), Mean ± S.E. (papain-induced emphysema; [3]): 400 + 38 cm^2 | Lm (mean linear intercept), Mean ± S.E. (papain-induced emphysema; [3]): 88.44 ± 2.54 μ | % inhibition (I.S.A.3) (papain-induced emphysema; [4]): 42% | % inhibition (Lm) (papain-induced emphysema; [4]): 59% | I.S.A.3 (internal surface area), Mean ± S.E. (papain-induced emphysema; [4]): 1344 ± 34 cm^2 | Lm (mean linear intercept), Mean ± S.E. (papain-induced emphysema; [4]): 90.87 ± 2.40 μ | % inhibition (I.S.A.3) (papain-induced emphysema; [5]): 65% | % inhibition (Lm) (papain-induced emphysema; [5]): 84% | I.S.A.3 (internal surface area), Mean ± S.E. (papain-induced emphysema; [5]): 1445 ± 54 cm^2 | Lm (mean linear intercept), Mean ± S.E. (papain-induced emphysema; [5]): 84.39 ± 2.68 μ | development of the emphysematous lesions (papain-induced emphysema; i.tr., evaluated by both physiologic and histologic methods): prevented the development of the emphysematous lestions | development of pulmonary emphysematous lesions ([2]; 1 mg added to elastase prior to i.tr. administration): completely prevented the development of pulmonary emphysematous lesions | protective effect (histological changes) ([2]; 0.03 to 0.3 mg added to elastase prior to i.tr. administration): partial but statistically significant protective effect | % inhibition of ΔLm [2, 6]: 48% | ΔLm [2, 6]: +17 μ | Lm, Mean ± S.E. [2, 6]: 96.61 ± 3.22 μ | % inhibition of ΔLm ([2]; Elastase 0.1 mg + 0.1 mg i.tr.): 54% | ΔLm ([2]; Elastase 0.1 mg + 0.1 mg i.tr.): +15 μ | Lm, Mean ± S.E. ([2]; Elastase 0.1 mg + 0.1 mg i.tr.): 94.34 ± 4.31 μ | % inhibition of ΔLm ([2]; Elastase 0.1 mg + 0.3 mg i.tr.): 51% | ΔLm ([2]; Elastase 0.1 mg + 0.3 mg i.tr.): +16 μ | Lm, Mean ± S.E. ([2]; Elastase 0.1 mg + 0.3 mg i.tr.): 96.27 ± 2.36 μ | % inhibition of ΔLm ([2]; Elastase 0.1 mg + 1.0 mg i.tr.): 100% | ΔLm ([2]; Elastase 0.1 mg + 1.0 mg i.tr.): -2 μ | Lm, Mean ± S.E. ([2]; Elastase 0.1 mg + 1.0 mg i.tr.): 77.68 ± 2.54 μ
